The values below come from US5100462A, “Method of counteracting ethylene response by treating plants with diazocyclopentadiene and derivatives thereof” (North Carolina State University, priority 1991, dated 1992).

One series has as its system ethylene binding. Particulars: Plant Growth Reg. 9, 157-164 (1990); cited from earlier work.
In series [1] the test system is ethylene binding site in tobacco leaves. The series is described as follows: Ethylene binding (14C-ethylene) in tobacco leaves, incl. Scatchard DACP-ethylene competition. Further details: species or system Nicotiana tabacum L. Conditions: for Binding (% of untreated control), Tobacco leaves, Dark / Binding (% of untreated control), Tobacco leaves, Light: measured 48 hours after exposure. On the procedure: (§1) Plant material was exposed to ^14 C-ethylene in the presence or absence of unlabeled ethylene. Usually exposure was for two hours. After this time, material was aired for two minutes and placed in 250 or 500 ml jars containing mercury perchlorate in liquid scintillation vials which also contained fiberglass filter to increase the surface area for 24 hours. The vials were then removed, scintillation fluid added and the samples counted in a liquid scintillation counter. All measurements were corrected for unbound ethylene. When the number of binding sites inactivated by DACP in the light were desired, samples were aired 48 hours before measuring ethylene binding to allow the DACP not undergoing a light reaction to diffuse away.
(§2) Experiments in the Examples below were carried out under normal laboratory fluorescent lights. The light intensity was 560 lux at the laboratory bench level. Normally treatment was inside 2.5 liter desiccators and the amount of light reaching the plant material was measured to average 448 lux or 80% of the incident light. When more light was needed, desiccators were moved to a position where the intensity was 2700 lux outside the desiccators. The amount of light reaching the plant material was measured to be 2160 lux.
Tobacco leaves (Nicotiana tabacum L.) were grown in a greenhouse. Leaves were harvested when approximately 10 cm in length, the midrib removed and allowed to stand overnight for wound ethylene to subside. After incubating tobacco leaves with DACP for three hours under fluorescent lights at 448 lux of fluorescent light, some of the ethylene binding site present, as assayed by ^14 C-labeled ethylene disappears. As the concentration of DACP increases, the amount of binding site remaining decreases. The curve (FIG. 1) appears to be biphasic with a decrease of 80% of binding between 0 and 40 μl/l at DACP. Addition of an additional 80 μl/l of DACP reduced binding further 10%. […] In all previous cases, compounds diffused from the binding site with a half life of three to six hours.
(§3) Scatchard plots are used to determine the binding constants of compounds. An underlying assumption using this method is that the reaction is reversible. Using DACP in the light leads to an irreversible complex and the Scatchard plot is not valid. It can be made and compared with the competition in the dark to evaluate the relative effectiveness of the compound in the light versus dark. FIGS. 6 and 7 represent plots for tobacco leaves and mung bean sprouts in the light and in the dark. It can be seen from these two figures that there are apparently two classes of sites present in both tobacco leaves and mung bean sprouts. The values are much lower in the light which would be expected if the site is being permanently removed. A greater portion of the binding sites appears to be occupied in the competition experiments (FIGS. 6, 7) than in experiments in which added ethylene is not present (FIGS. 3, 4, 5).

Series [2] has as its system ethylene binding site in mung bean sprouts. The series is described as follows: Ethylene binding (14C-ethylene) in mung bean sprouts, incl. Scatchard DACP-ethylene competition. Particulars: for Binding (% of untreated control), Mung bean sprouts, Dark / Binding (% of untreated control), Mung bean sprouts, Light: measured 24 hours after exposure. Further details: species or system Vigna radiata L. Here is the method: as §1
Mung beans (Vigna radiata L.) were germinated in the dark for four days. At this point 10-12 sprouts were placed in 3 liter containers, and treated with DACP and ethylene as indicated in the individual Examples below. Ethylene was changed each day and seedlings were retreated with DACP at seven days. The height was measured at ten days. Light was 560 lux throughout the experiment after the four-day germination in the dark.
as §2, §3

The subject of a further series is mung bean seedlings. The series is described as follows: Growth inhibition of mung bean seedlings by ethylene. Format: in vivo, Vigna radiata L. On the procedure: Mung beans (Vigna radiata L.) were germinated in the dark for four days. At this point 10-12 sprouts were placed in 3 liter containers, and treated with DACP and ethylene as indicated in the individual Examples below. Ethylene was changed each day and seedlings were retreated with DACP at seven days. The height was measured at ten days. […]

The test system of the next series is Tomato fruit. The series can be described thus: Tomato ripening (red/green reflectance ratio). Format: in vivo, Lycopersicon esculentum, Mill. Conditions: 25° C. On the procedure:
Plant Material. Tomatoes (Lycopersicon esculentum, Mill) were obtained from a wholesale distributor.
Chemicals. DACP was prepared as previously described and kept as a 4-8% solution in hexane. Treatment was in a 3 l container. DACP was pipetted as a hexane solution onto paper towel to facilitate evaporation. After sealing, the containers were kept in darkness or exposed to 448 lux of fluorescent light for 24 hours. After 24 hours, containers were aired out for 24 hours. Those containers kept in darkness were aired in darkness. Subsequently the ethylene treatment was started and all samples were kept in 448 lux of fluorescent light. The gas phase was changed each day.
Ripening. Ripening was measured with an Agtron reflectance spectrophotometer (Magnson Engineers, Inc., Instruments Division, San Jose, Calif.) which measures the ratio of red/green light reflected from the tomato.

The test system of another series is Cut purple petunias. The series is described as follows: Cut flower longevity, petunias. Format: in vivo, Petunia hydrida. Particulars: volatile DACP. On the procedure: Cut purple petunias (Petunia hydrida) are treated with volatile DACP in the same manner as described above.
For a further series, the system named is Carnation. The series can be described thus: Cut flower longevity, carnation. It is filed as in vivo, Dianthus caryophyllus. Particulars: volatile DACP.
The next series relates to Potted poinsettia. The series can be described thus: Protection of potted poinsettia from ethylene. Format: in vivo, Euphorbia pulcherima. Particulars: volatile DACP. On the procedure:
Potted poinsettia (Euphorbia pulcherima) is treated with volatile DACP in the same manner as described above, and then exposed to ethylene to determine if the DACP would protect the poinsettia from the ethylene.

For a further series, the system named is beans. The series can be described thus: Ethylene-induced leaf abscission in beans. It is filed as in vivo, Phaseolus vulgaris. Conditions: DACP vapor.
Setting [3] is: DARK, DACP 120 ul/l + 10 μl/l E.
Setting [4] is: DARK, DACP 120 ul/l as a gas, no ethylene.
Where [5] appears, read: LIGHT, DACP 120 ul/l + 10 μl/l E.
[6] abbreviates: LIGHT, DACP 120 ul/l + 100 μl/l E.
Setting [7] is: LIGHT, DACP 120 ul/l as a gas, no ethylene.

Consider `C1=CCC=C1` [cyclopentadiene], for which the “blocking of ethylene binding” value with ethylene binding is “effective blocking agent for ethylene binding”.
For the compound `C=C` [Ethylene], in series [1], the “Binding (% of untreated control), Tobacco leaves, Dark” value is 100 % of untreated control and the “Binding (% of untreated control), Tobacco leaves, Light” value is given as 100 % of untreated control. Further, in [2], the “Binding (% of untreated control), Mung bean sprouts, Dark” value is recorded as 100 % of untreated control and the “Binding (% of untreated control), Mung bean sprouts, Light” value is reported as 100 % of untreated control. Also, in the series with mung bean seedlings (DARK, 10 μl/l E), the “% of Control” value is 16 % of Control and the “Height (cm)” value is recorded as 1.5 cm. Besides, in the series with mung bean seedlings (LIGHT, 10 μl/l E), the “% of Control” value is recorded as 16 % of Control and the “Height (cm)” value is listed as 1.5 cm. In addition, in the series with mung bean seedlings (LIGHT, 1000 μl/l E), the “% of Control” value was 16 % of Control and the “Height (cm)” value was found to be 1.5 cm. The “1/2 maximum of ethylene for growth inhibition (Lineweaver-Burk plot)” value with mung bean seedlings (after exposure to DACP) worked out at 50 μl/l.
For the compound `[N-]=[N+]=C1C=CC=C1` [Diazocyclopentadiene], the “Binding (% of untreated control), Tobacco leaves, Dark” value in series [1] is 100 % of untreated control. Also, in series [1], the “Binding (% of untreated control), Tobacco leaves, Light” value is listed as 27 % of untreated control. For the same compound, the “further reduction of binding” value in series [1] (additional 80 μl/l of DACP, three hours at 448 lux (FIG. 1), 180 min) amounted to 10%. Also, the decrease of binding in series [1] (between 0 and 40 μl/l DACP, three hours at 448 lux fluorescent light (FIG. 1), 180 min) came to 80%. The “half life of reappearance of the binding site after DACP is removed” value in series [1] (in the dark, 245 μl/l (gas) DACP (FIG. 2A)) is “about 15 hours”. In [1] (incubated in darkness, 245 μl/l (gas) DACP (FIG. 2A)), the “binding site after incubation with DACP” value is reported as “most of the binding site disappears”. The “reappearance of the binding site after DACP is removed” value in [1] (leaves preincubated in the light before removing the DACP (FIG. 2A)) is “does not reappear or if it does it does so only very slowly over many days”. Further, in series [1] (same leaves re-assayed without retreating with DACP), the “amount of binding site after 24 additional hours” value was “appears to remain constant”. Besides, the “amount of binding site inactivated, prebound DACP versus DACP present during the light treatment” value in [1] (two hours DACP in the dark, aired one hour, then light) is on record as “No difference”. The “time in which most of the light reaction has occurred” value in series [2] (448 lux, presaturated site (FIG. 3)) was no more than 30 min. For the same compound, in [2], the “Binding (% of untreated control), Mung bean sprouts, Dark” value is listed as 100 % of untreated control. Further, the “Binding (% of untreated control), Mung bean sprouts, Light” value in [2] was 24 % of untreated control. Moreover, the “time in which most of the decrease in binding occurs (diffusion to the binding site)” value in [2] (after release as a liquid (FIG. 3)) was no more than 15 min. The “time for 1/2 of the binding site to be regenerated” value in [2] (in darkness, 245 μl/l (gas) DACP (FIG. 2B)) is “about two”. Besides, the “% of Control” value in the series with mung bean seedlings (setting [3]) is recorded as 16 % of Control; in the series with mung bean seedlings (setting [4]), 94 % of Control; in the series with mung bean seedlings (setting [5]), 80 % of Control; with mung bean seedlings (setting [6]), 53 % of Control; with mung bean seedlings (LIGHT, DACP 120 ul/l + 1000 μl/l E, 14400 min), 3.6 % of Control; with mung bean seedlings (setting [7]), 93 % of Control. Also, the “Height (cm)” value in the series with mung bean seedlings (setting [3]) is on record as 1.5 cm; with mung bean seedlings (setting [4]), 9.0 cm; in the series with mung bean seedlings (setting [5]) it was 7.6 cm; in the series with mung bean seedlings (setting [6]) it was 5.0 cm; in the series with mung bean seedlings (LIGHT, DACP 120 ul/l + 1000 μl/l E), 2.3 cm; in the series on mung bean seedlings (setting [7]), 8.9 cm. Moreover, the “time by which all of the tomatoes were nearly ripe” value in the series on Tomato fruit (DACP in the light) was no more than 25 days. The “ratio of red to green” value in the series on Tomato fruit (single exposure in the light, whether or not 1000 μl/l of ethylene was present (FIG. 8)) is “remained constant for ten days”. In the series with Tomato fruit (DACP applied in the dark), the effect on ripening entry is listed as “only a small effect”. In addition, the “time to ripe as indicated by the red/green ratio” value with Tomato fruit (DACP applied in the dark) is “ripe in ten days”. The “longevity of the flower” value with Cut purple petunias is “found to increase”; in the series on Carnation, “likewise found to increase”. Moreover, in the series with Potted poinsettia, the “signs of injury from DACP” value is “No signs of injury”. Further, the “death of the flowers (cyanthum) in response to ethylene” value in the series on Potted poinsettia (then exposed to ethylene) is recorded as “died in response to the ethylene in the controls but not on the DACP treated plants”. Also, the ethylene-induced leaf abscission result in the series on beans is listed as “found to prevent ethylene-induced leaf abscission”.
